Consider one compound from patent US11628160B2, “Compositions and methods for treating brain injury” (Azevan Pharmaceuticals, Inc., priority 2017, dated 2023).

Test [1] has as its system Male Sprague Dawley rats. The test is described as follows: Motor behavior (balance beam, rotarod). Format: in vivo, rat. Here is the method: EXAMPLE. Momentum exchange impact model. This model features several advantageous translational differences over some head injury models, such as the controlled cortical impact injury model. For example, the head, neck and body can move with impact, and the velocity of head movement and energy transfer can be calculated and scaled mild to provide range from moderate to severe concussions. Studies are conducted with moderate impacts with neuroradiological evidence of contusions. Male rats are concussed twice with one day. Additional details are described in Viano et al., “Evaluation of three animal models for concussion and serious brain injury” Ann Biomed Eng. 40(1):213-26 (2012). […] Sham non-concussed test animals are given vehicle or test compound. Test animals are treated twice daily for 5 consecutive days. At two weeks post concussion cognitive behaviors are assessed, using for example, the Barnes maze and/or novel recognition models. In addition, motor behaviors are assessed, using for example, beam walk and/or rotarod tests. In each case, neuroradiological MRI is also performed. […]
On the technique in general: The rotarod test checks motor coordination on a turning rod.

Test [2] concerns Male Sprague Dawley rats. The test is described as follows: Barnes Maze test (momentum exchange impact model). Format: in vivo, rat. Here is the method:
(§1) EXAMPLE. Momentum exchange impact model. This model features several advantageous translational differences over some head injury models, such as the controlled cortical impact injury model. For example, the head, neck and body can move with impact, and the velocity of head movement and energy transfer can be calculated and scaled mild to provide range from moderate to severe concussions. Studies are conducted with moderate impacts with neuroradiological evidence of contusions. Male rats are concussed twice with one day. Additional details are described in Viano et al., “Evaluation of three animal models for concussion and serious brain injury” Ann Biomed Eng. 40(1):213-26 (2012). […] Sham non-concussed test animals are given vehicle or test compound. Test animals are treated twice daily for 5 consecutive days. At two weeks post concussion cognitive behaviors are assessed, using for example, the Barnes maze and/or novel recognition models. In addition, motor behaviors are assessed, using for example, beam walk and/or rotarod tests. In each case, neuroradiological MRI is also performed.
(§2) Beginning on postnatal (P)70, animals are divided into 3 groups (n=6-7/group; Sham Control Group (Control, CG), Injury Group (IG), and Treatment Group (TG) and begin their head impact, and drug regimens. All groups are anaesthetized with 4% isoflurane in oxygen, and Injury group and Treatment group receive the first of two total head impacts) using a custom setup from Animal Imaging Research (AIR; Holden, Mass.) on P70. The day after the first impact (P71), test compound, such as AVN576, is administered to the Treatment group and the Sham Control group. In addition, a vehicle only control group (VCG) is administered saline. All administrations re administered to the Control and Treatment groups twice per day at 0700 and 1400 (IP @10 mg/kg). The drug regimen is continued over the following 4 days (5 days total). The second head impact is delivered two days following the first on P72. Two weeks post impact, animals are imaged and tested for cognitive and motor behaviors. In all evaluations made, there was not a significant difference between the sham control group (CG) receiving test compounds and vehicle-only sham control group (VCG) receiving vehicle.
EXAMPLE. Barnes Maze test results. This test assesses spatial learning and memory.

Test [3] relates to Male Sprague Dawley rats. Briefly: Treatment in the momentum exchange impact model. The test is classed as in vivo, rat. The conditions noted are these: concussed rats, two head impacts; IP 10 mg/kg twice daily 5 days; two weeks post impact; vs sham Control. How it is done: EXAMPLE. Momentum exchange impact model. This model features several advantageous translational differences over some head injury models, such as the controlled cortical impact injury model. For example, the head, neck and body can move with impact, and the velocity of head movement and energy transfer can be calculated and scaled mild to provide range from moderate to severe concussions. Studies are conducted with moderate impacts with neuroradiological evidence of contusions. Male rats are concussed twice with one day. Additional details are described in Viano et al., “Evaluation of three animal models for concussion and serious brain injury” Ann Biomed Eng. 40(1):213-26 (2012). […] Sham non-concussed test animals are given vehicle or test compound. Test animals are treated twice daily for 5 consecutive days. At two weeks post concussion cognitive behaviors are assessed, using for example, the Barnes maze and/or novel recognition models. In addition, motor behaviors are assessed, using for example, beam walk and/or rotarod tests. […]
The pneumatic pressure drive is replicated, 50 g compactor, as described by Viano and reproduced consistently, the 7.4, 9.3, and 11.2 m/s impact velocities described for mild, medium, and severe head injury, respectively. The data described herein are obtained from a 9.12 meters/sec impact velocity, as determined using high-speed video recordings. […]

A further test has as its target T1, human V1a receptor (Homo sapiens, UniProt P37288).
T1 construct: host or cells: CHO cells
Briefly: Human vasopressin V1a receptor binding assay. As to conditions: selectivity table; read-out: inhibition data Ki, V1a. Summed up: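 Whole CHO cells expressing human V1a incubated with 1 nM 3H-AVP and 10-fold compound dilutions in 25 mM Hepes, 0.25% BSA, DMEM pH 7.0 for 45 min at 37 °C. Nonspecific binding with 100 nM unlabelled AVP. Cells SDS-lysed, scintillation counted; IC50 by curve fitting.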

Test [4] relates to Male Sprague Dawley rats. The test is described as follows: Novel Object Recognition test (momentum exchange impact model). Format: in vivo, rat. How it is done:
as §1, §2
EXAMPLE. Novel Object Recognition test results. This test assesses episodic learning and memory-related stimulus recognition.

T1 sequence (P37288 whole entry): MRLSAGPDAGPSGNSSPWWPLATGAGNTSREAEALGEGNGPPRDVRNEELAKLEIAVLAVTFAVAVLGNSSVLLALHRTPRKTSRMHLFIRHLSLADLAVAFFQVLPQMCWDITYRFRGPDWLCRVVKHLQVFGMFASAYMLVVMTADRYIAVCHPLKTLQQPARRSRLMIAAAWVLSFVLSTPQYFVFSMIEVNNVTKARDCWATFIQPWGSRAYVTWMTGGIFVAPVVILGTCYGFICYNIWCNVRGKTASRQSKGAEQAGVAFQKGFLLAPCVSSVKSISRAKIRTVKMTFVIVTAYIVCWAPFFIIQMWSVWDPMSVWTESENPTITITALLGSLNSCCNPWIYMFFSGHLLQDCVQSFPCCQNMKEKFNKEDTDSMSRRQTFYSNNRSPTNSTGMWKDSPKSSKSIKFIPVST

By Ki is commonly meant a measure of affinity in units of concentration, obtained from inhibition or displacement. For `C[C@@H](NC(=O)[C@@H](CC(=O)N1CCC(N2CCCCC2)CC1)N1C(=O)[C@@H](N2C(=O)OC[C@@H]2c2ccccc2)[C@H]1/C=C/c1cccc(I)c1)c1ccccc1` [Example 266], the “rotarod latency to fall” value with Male Sprague Dawley rats [1] (Treatment group, Injury group 69.8±5.5, Control group 105.4±7.6, P=0.2) was 84.0 ± 9.0 s. Besides, in the test on Male Sprague Dawley rats [1] (concussed rats, IP 10 mg/kg twice daily 5 days), the “overall motor behavior, Control vs Treatment group” value is given as “not a significant difference in overall motor behavior”. In the test with Male Sprague Dawley rats [2] (P=0.03), the “distance traveled before finding the goal box: Injury group relative to Treatment group” value was “significantly greater distance” and the “error duration (time exploring wrong holes): Injury group relative to Treatment group” value was “significantly more time exploring the wrong holes”. In the test with Male Sprague Dawley rats [2] (Treatment group, did not differ from control group), the “deficits in learning and memory, Barnes maze” value is “did not show any deficits in learning and memory”. Further, the “latency to find the goal box: Injury group relative to Treatment group” value in the test on Male Sprague Dawley rats [2] (collapsed across acquisition days, P=0.04) is recorded as “longer latencies to find the goal box”. Also, in the test on Male Sprague Dawley rats [3], the “deficits in learning and memory” value was “no deficits in learning and memory”. Also, the Ki on human V1a receptor was determined as 1.1 nM. The “percentage of time with the novel object compared to the Injury group” value in the test with Male Sprague Dawley rats [4] (Treatment group P=0.003) is “significantly longer percentage of time”. Moreover, the “total time with the novel object compared to the Injury group” value with Male Sprague Dawley rats [4] (Treatment group P=0.02) is reported as “significantly more total time”. The “exploration index (exploration instances) compared to the Injury group” value with Male Sprague Dawley rats [4] (Treatment group P=0.06) was “only a trend towards significance”. The “time investigating the novel object (recognition index) compared to chance” value with Male Sprague Dawley rats [4] (Treatment group, t(5)=2.61, p<0.05, IP 10 mg/kg twice daily 5 days) is “significantly greater than a chance amount of time”.
